Reference: patent US5602106A, “16-membered macrolide derivatives” (priority 1993, dated 1997)
≈ marks a conversion by molar mass, not a printed value. Like-named read-outs stand apart in the source and are kept apart here.

Legend:
[1] = test system: Branhamella catarrhalis; test: Antimicrobial activity in vitro; type: cell-based; settings: vs compound (5)
Protocol: (§1) The effect of the first aspect of the present invention resides in the creation of a novel and useful 16-membered macrolide derivative. Antimicrobial activities of the compounds of the present invention were determined by measuring minimum inhibitory concentration (MIC). Minimum inhibitory concentration was determined by the agar plate dilution method in the following manner.
(§2) Test strains were subjected to seed culture using Sensitivity test broth (STB, Nissui Pharmaceutical) except that the strains belonging to the genus Streptococcus, Branhamella and Haemophilus were cultured on blood agar plate. A 5 μl portion of cell suspension of the test strains having about 10^6 CFU/ml was inoculated into Sensitivity disk agar (SDA, Nissui Pharmaceutical) supplemented with 5% horse blood and incubated at 37° C. for 20 hours. Then, MIC was measured. […] Antimicrobial activities in vitro of the compounds (1) and (2) are shown in Table 1, and those of the compounds (3) and (4) in Table 3.

[2] = test system: test strains; test: Antimicrobial activity in vitro, test strains overall; type: cell-based; settings: vs miokamycin (MOM)
Protocol: as §1, §2

[3] = literature; cited from earlier work
[4] = test system: K. pneumoniae PCI602; test: MIC, agar plate dilution method; type: cell-based; settings: Klebsiella pneumoniae, PCI602, 20 h, 37° C., SDA with 5% horse blood, read-out: Antimicrobial activity (MIC)
Protocol: as §1, §2

[5] = test system: S. pneumoniae Type 1; test: MIC, agar plate dilution method; type: cell-based; settings: for MIC: Streptococcus pneumoniae, TYPE1, 20 h, read-out: Antimicrobial activity (MIC), 37° C., 20 hours, SDA with 5% horse blood
Protocol: as §1, §2

[6] = test system: B. catarrhalis W-0500; test: MIC, agar plate dilution method; type: cell-based; settings: Moraxella catarrhalis, W0500; 37° C., 20 hours, SDA with 5% horse blood; read-out: Antimicrobial activity (MIC)
Protocol: as §1, §2

[7] = test system: S. aureus MS15026; test: MIC, agar plate dilution method; type: cell-based; settings: Staphylococcus aureus, 37° C., 20 hours, SDA with 5% horse blood, read-out: Antimicrobial activity (MIC)
Protocol: as §1, §2

[8] = test system: S. pyogenes Cook; test: MIC, agar plate dilution method; type: cell-based; settings: Streptococcus pyogenes
Protocol: as §1, §2

[9] = test system: H. influenzae 9334; test: MIC, agar plate dilution method; type: cell-based
Protocol: as §1, §2

[10] = test system: S. pneumoniae IP692; test: MIC, agar plate dilution method; type: cell-based; settings: for MIC: Streptococcus pneumoniae, IP692, 20 h, read-out: Antimicrobial activity (MIC), 37° C., 20 hours, SDA with 5% horse blood
Protocol: as §1, §2

[11] = test system: S. aureus MS15009/pMS98; test: MIC, agar plate dilution method; type: cell-based; settings: for MIC: Staphylococcus aureus, MS15009/PMS98, 20 h, read-out: Antimicrobial activity (MIC), 37° C., 20 hours, SDA with 5% horse blood
Protocol: as §1, §2

[12] = test system: M. luteus ATCC9341; test: MIC, agar plate dilution method; type: cell-based; settings: Micrococcus luteus
Protocol: as §1, §2

[13] = test system: S. aureus MS15027; test: MIC, agar plate dilution method; type: cell-based; settings: Staphylococcus aureus, MS15027, 20 h, read-out: Antimicrobial activity (MIC), 37° C., 20 hours, SDA with 5% horse blood
Protocol: as §1, §2

[14] = test system: S. aureus 209P JC-1; test: MIC, agar plate dilution method; type: cell-based; settings: for MIC: Staphylococcus aureus, 209P, 20 h, read-out: Antimicrobial activity (MIC), 37° C., 20 hours, SDA with 5% horse blood
Protocol: as §1, §2

[15] = test system: E. coli NIHJ JC-2; test: MIC, agar plate dilution method; type: cell-based; settings: Escherichia coli, NIHJJC2, 20 h, 37° C., SDA with 5% horse blood, read-out: Antimicrobial activity (MIC)
Protocol: as §1, §2

[16] = test system: S. aureus M126; test: MIC, agar plate dilution method; type: cell-based; settings: Staphylococcus aureus, 37° C., 20 hours, SDA with 5% horse blood, read-out: Antimicrobial activity (MIC)
Protocol: as §1, §2

[17] = test system: S. aureus M133; test: MIC, agar plate dilution method; type: cell-based; settings: for MIC: Staphylococcus aureus, M133, 20 h, read-out: Antimicrobial activity (MIC), 37° C., 20 hours, SDA with 5% horse blood
Protocol: as §1, §2

[18] = test system: S. epidermidis ATCC14990; test: MIC, agar plate dilution method; type: cell-based; settings: Staphylococcus epidermidis, ATCC14990, 20 h, read-out: Antimicrobial activity (MIC), 37° C., 20 hours, SDA with 5% horse blood
Protocol: as §1, §2

[19] = test system: E. faecalis W-73; test: MIC, agar plate dilution method; type: cell-based; settings: Enterococcus faecalis, W73, 20 h, read-out: Antimicrobial activity (MIC)
Protocol: as §1, §2

[20] = test system: S. aureus MS15009/pMS99; test: MIC, agar plate dilution method; type: cell-based; settings: Staphylococcus aureus, MS15009/PMS99, 20 h, read-out: Antimicrobial activity (MIC)
Protocol: as §1, §2

[21] = test system: B. catarrhalis W-0506; test: MIC, agar plate dilution method; type: cell-based; settings: Moraxella catarrhalis, W0506; 37° C., 20 hours, SDA with 5% horse blood; read-out: Antimicrobial activity (MIC)
Protocol: as §1, §2

[22] = test system: H. influenzae Type b; test: MIC, agar plate dilution method; type: cell-based; settings: for MIC: Haemophilus influenzae, 20 h, read-out: Antimicrobial activity (MIC), 37° C., 20 hours, SDA with 5% horse blood
Protocol: as §1, §2

[23] = test system: B. catarrhalis W-0400; test: MIC, agar plate dilution method; type: cell-based; settings: Moraxella catarrhalis, W0400, 20 h, read-out: Antimicrobial activity (MIC)
Protocol: as §1, §2

[24] = 20 h, read-out: Antimicrobial activity (MIC), 37° C., 20 hours, SDA with 5% horse blood
[25] = Haemophilus influenzae, 9334, 20 h, read-out: Antimicrobial activity (MIC), 37° C., 20 hours, SDA with 5% horse blood
[26] = 37° C., 20 hours, SDA with 5% horse blood

| Compound | metabolism and loss of antimicrobial activity after oral administration [3] | MIC [4] [µg/mL] | MIC [5] [µg/mL] | MIC [7] [µg/mL] | MIC [8, 24] [µg/mL] | MIC [9, 25] [µg/mL] | MIC [10] [µg/mL] | MIC [11] [µg/mL] | MIC [13] [µg/mL] | MIC [14] [µg/mL] | MIC [15] [µg/mL] | MIC [16] [µg/mL] | MIC [17] [µg/mL] | MIC [18] [µg/mL] | MIC [19] [µg/mL] | MIC [20] [µg/mL] | MIC [22] [µg/mL] | further results |
| --- | --- | --- | --- | --- | --- | --- | --- | --- | --- | --- | --- | --- | --- | --- | --- | --- | --- | --- |
| CO[C@@H]1[C@@H](O[C@@H]2O[C@H](C)[C@@H](O[C@H]3C[C@@](C)(OC)[C@@H](OC(=O)CC(C)C)[C@H](C)O3)[C@H](N(C)C)[C@H]2O)[C@@H](CC=O)C[C@@H](C)[C@@H](OC(C)=O)/C=C/C=C/C[C@@H](C)OC(=O)C[C@H]1OC(C)=O [(11), 9-O-acetyl-3"-O-methyljosamycin] |  |  |  |  |  |  |  |  |  |  |  |  |  |  |  |  |  | antimicrobial activity against Branhamella catarrhalis compared with compound (5) [1]: slightly superior to that of the compound (5); antimicrobial activities in vitro compared with miokamycin [2]: comparable to or higher |
| CCC(=O)O[C@@H]1CC(=O)O[C@H](C)C/C=C/C=C/[C@H](OC(C)=O)[C@H](C)C[C@H](CC=O)[C@H](O[C@@H]2O[C@H](C)[C@@H](O[C@H]3C[C@@](C)(OC(C)=O)[C@@H](OC(=O)CC)[C@H](C)O3)[C@H](N(C)C)[C@H]2O)[C@H]1OC [MOM, miokamycin, reference compound] | an acyl group of a neutral sugar moiety of the administered drug is cleaved with time and antimicrobial activities of the drug itself therefore is reduced gradually | > 100 | 0.2 (≈ 0.223 µM) | > 100 | 0.2 (≈ 0.223 µM) | 6.25 (≈ 6.96 µM) | 0.2 (≈ 0.223 µM) | 0.78 (≈ 0.869 µM) | 0.78 (≈ 0.869 µM) | 0.39 (≈ 0.434 µM) | > 100 | > 100 | 0.78 (≈ 0.869 µM) | 0.78 (≈ 0.869 µM) | 6.25 (≈ 6.96 µM) | > 100 | 50 (≈ 55.7 µM) | MIC [6]: 1.56 µg/mL (≈ 1.74 µM); MIC ([12]; ATCC9341, 20 h, read-out: Antimicrobial activity (MIC), 37° C., 20 hours, SDA with 5% horse blood): 0.1 µg/mL (≈ 0.111 µM); MIC [21]: 1.56 µg/mL (≈ 1.74 µM) |
| CCCC(=O)O[C@H]1[C@H](C)O[C@@H](O[C@H]2[C@H](N(C)C)[C@@H](O)[C@H](O[C@H]3[C@@H](CC=O)C[C@@H](C)[C@@H](O)/C=C/C=C/C[C@@H](C)OC(=O)C[C@@H](O)[C@@H]3OC)O[C@@H]2C)C[C@@]1(C)OC(=O)CC [RKM, rokitamycin, reference compound] | an acyl group of a neutral sugar moiety of the administered drug is cleaved with time and antimicrobial activities of the drug itself therefore is reduced gradually | > 100 | 0.1 (≈ 0.121 µM) | > 100 | 0.2 (≈ 0.242 µM) | 6.25 (≈ 7.55 µM) | 0.1 (≈ 0.121 µM) | 0.39 (≈ 0.471 µM) | 0.78 (≈ 0.942 µM) | 0.1 (≈ 0.121 µM) | > 100 | > 100 | 0.39 (≈ 0.471 µM) | 0.78 (≈ 0.942 µM) | 0.39 (≈ 0.471 µM) | > 100 | 6.25 (≈ 7.55 µM) | Antimicrobial activity (MIC) [5, 26]: 0.20 µg/mL; MIC ([8]; 37° C., 20 hours, SDA with 5% horse blood, read-out: Antimicrobial activity (MIC)): 0.05 µg/mL (≈ 0.0604 µM); MIC ([9]; Haemophilus influenzae, 9334, 37° C., 20 hours, SDA with 5% horse blood, read-out: Antimicrobial activity (MIC)): 1.56 µg/mL (≈ 1.88 µM); Antimicrobial activity (MIC) [10, 26]: 0.20 µg/mL; Antimicrobial activity (MIC) [11, 26]: 0.78 µg/mL; MIC ([12]; ATCC9341, 37° C., 20 hours, SDA with 5% horse blood, read-out: Antimicrobial activity (MIC)): 0.05 µg/mL (≈ 0.0604 µM); Antimicrobial activity (MIC) [14, 26]: 0.20 µg/mL; Antimicrobial activity (MIC) [17, 26]: 0.78 µg/mL; MIC [19, 26]: 1.56 µg/mL (≈ 1.88 µM); MIC [23]: 0.39 µg/mL (≈ 0.471 µM); Antimicrobial activity (MIC) [22, 26]: 12.5 µg/mL |
